Experimental data from patent publication US9771366B2, “Substituted tetrahydropyrido[3′,2′:4,5]pyrrolo[1,2-a]pyrazine-2-carboxamides as RSK inhibitors” (Phoenix Molecular Designs, priority 2016, dated 2017).

Legend:
RSK1 = RSK1 (Homo sapiens (Human), UniProt Q15418); test: Radioisotope kinase assay (SignalChem), RSK1; type: biochemical
Description: (§1) Radioisotope assays (SignalChem) were performed for the evaluation of the kinase target profiling and all assays were performed in a designated radioactive working area. The kinase targets were RSK1, RSK2, RSK3, RSK4 and MK2. The kinase assays (in duplicate) were performed at 30° C. for 15 minutes in a final volume of 25 μL according to the following assay reaction recipe: • Component 1: 5 μL of diluted active kinase target (100 ng per reaction) • Component 2: 5 μL of peptide substrate (0.5 μg per reaction) (for RSK1, RSK2, RSK3 and RSK4, RSK S6K substrate was used; for MK2, HSP27tide was used) • Component 3: 5 μL of kinase assay buffer • Component 4: 5 μL of compound described herein (various concentrations: 0, 0.1, 1, 10, 100 or 1000 nM or 1, 3, 10, 30, 100, 300 nM) • Component 5: 5 μL of ^33P-ATP (5 μM stock solution, 0.8 μCi; […])
(§2) The assay was initiated by the addition of ^33P-ATP and the reaction mixture incubated at 30° C. for 15 minutes. […] The radioactivity on the P81 plate was counted in the presence of scintillation fluid in a Trilux scintillation counter.
(§3) Blank controls were set up for each target kinase which included all the assay components except the addition of the appropriate substrate (which was replaced with equal volume of assay dilution buffer). The corrected activity for each target kinase was determined by removing the blank control value.

RSK3 = RSK3 (Homo sapiens (Human), UniProt Q15349); test: Radioisotope kinase assay (SignalChem), RSK3; type: biochemical
Description: as §1, §2, §3

RSK2 = RSK2 (Homo sapiens (Human), UniProt P51812); test: Radioisotope kinase assay (SignalChem), RSK2; type: biochemical
Description: The assay conditions for the RSK2 kinase target were optimized to yield acceptable enzymatic activity. In addition, the assays were optimized to give high signal-to-noise ratio.
Radioisotope assays (SignalChem) were performed for the evaluation of the kinase target profiling and all assays were performed in a designated radioactive working area. The kinase targets were RSK1, RSK2, RSK3, RSK4 and MK2.
The assay was initiated by the addition of ^33P-ATP and the reaction mixture incubated at 30° C. for 15 minutes. After the incubation period, the assay was terminated by spotting 10 μL of the reaction mixture onto Multiscreen phosphocellulose P81 plate. The Multiscreen phosphocellulose P81 plate was washed 3 times for approximately 15 minutes each in a 1% phosphoric acid solution. The radioactivity on the P81 plate was counted in the presence of scintillation fluid in a Trilux scintillation counter.
as §3

[1] = Colony forming unit hematopoietic stem cell assay; type: cell-based, human; details: human, CD34+ cells from human cord blood or peripheral blood; at 3.8 uM; read-out: cells viable in the HSC assay
Description: The hematopoietic colony forming cell assay was conducted based on a protocol outlined by StemCell Technologies. […] Following the addition of CD34^+ cells isolated from human cord blood or peripheral blood (StemCell Technologies) at a final concentration of 5×10^2 cells per dish, the tubes were vortexed and allowed to stand for 5 minutes at room temperature. Next, the MethoCult mixtures were dispensed into 35 mm dishes (Corning Incorporated) through blunt end needles (StemCell Technologies) and 5 ml syringes (BD Biosciences) at a volume of 1.1 ml per dish. The medium was evenly distributed across the surface of each dish by gentle tilting and rotation. The dishes were then placed in a 100 mm culture dish (Grenier Bio-One) containing additional 35 mm dishes with sterile water to maintain humidity. The culture dish was then placed at 37° C. in a humidified incubator containing 5% CO2 for 13 days. The number of myeloid and erythroid derived colonies in both the treated and control dishes were counted and compared.

RSK4 = RSK4 (Homo sapiens (Human), UniProt Q9UK32); test: Radioisotope kinase assay (SignalChem), RSK4; type: biochemical
Description: as §1, §2, §3

CIITA mRNA = test: Immuno-oncology: CIITA mRNA expression; type: cell-based, Human; details: MDA-MB-231 and JIMT-1 cells; Compound 16 2 or 4 uM, Compound 18 1, 2, or 4 uM
Text: (§4) A key feature of cancer is low immunogenicity. This can occur by several mechanisms that allow the cells to escape immune recognition. […] HLA-DRA is a member of MHC-II genes and CIITA is the master regulator of MHC II transcription. Thus it was surprising that CIITA, which would be expected to regulate MHC II gene expression, was not altered by RSK inhibition. […] HLA-DRA is important for immune recognition while PD-L1 is involved in immune checkpoints.

[2] = system: CD274, the gene that encodes PD-L1; test: Immuno-oncology: CD274 expression in JIMT-1 cells; type: cell-based, Human; details: 1-20 uM
Text: as §4

[3] = Solubility assessment at 20 mg/ml; type: physicochemical; details: for 20 mg/ml Solubility: dissolved in DMSO, diluted in DMEM
Description: Solubility is an important property for therapeutic drug candidates. Poor solubility can lead to low bioavailability resulting in suboptimal drug delivery. It can also prevent the evaluation of test agents in animals because the concentration(s) needed to achieve the desired effect cannot be achieved to poor solubility. For solubility assessments, small molecules targeting RSK were compared. For these assessments, 100 mM solutions of the compounds dissolved in DMSO were diluted in DMEM growth media (Life Technologies) supplemented with fetal bovine serum (FBS, Life Technologies) and 100 units/ml penicillin and 100 units/ml streptomycin (Life Technologies) to make 20 mg/ml solutions. Once diluted, the solutions were vortexed and examined for the formation of precipitates. […] For Compound 26, a 100 mM solution of the compound dissolved in DMSO was diluted in phosphate buffered saline (Life Technologies) to make a 20 mg/ml solution. The stock of […] was chosen because this is the upper end of what would be required to dose mice for a range of studies including MTD, PK, PD and efficacy. The pH of this solution was determined to be 2, as previously described. […] At high concentrations some RSK inhibitors were highly soluble while others were not. Compound 0 is (R)—N-(1-benzyl-1H-pyrazol-4-yl)-9-methyl-6-oxo-6,7,8,9-tetrahydropyrido[3′,2′:4,5]pyrrolo[1,2-a]pyrazine-2-carboxamide. Compound 0 was not soluble, whereas Compounds 18, 20, 21, 25 and 26 were soluble under the same conditions (Table 5).

[4] = system: phosphorylated Y-box binding protein-1 (YB-1) at serine 102 (P—YB-1S102); test: Immunoblotting of phosphorylated YB-1 in MDA-MB-231 cells
Description: Following desired experimental conditions, breast cancer cell lines grown and treated in 6 well plates or 100 mm culture dishes (Grenier Bio-One) were placed on ice and the supernatant from each well was removed and the cells were washed in cold PBS. Following removal of PBS, cells were exposed to radioimmunoprecipitation assay (RIPA) buffer (50 mM Tris-HCl (pH 8), 150 mM NaCl, 1% NP-40, 0.5% sodium deoxycholate, 0.1% SDS; Fisher Scientific) supplemented with 1% phosphatase inhibitor (Fisher Scientific) and 1% protease inhibitor (Fisher Scientific) for 10 minutes. Samples were transferred to eppendorf tubes, vortexed and then centrifuged at 14 000 rpm for 10 minutes. Supernatants were collected as whole cell lysates. For mouse tumour tissues, each sample was place in a 35 mm culture dish with complete RIPA lysis buffer. The samples were diced in the buffer on ice with a sterile scalpel (VWR) and the buffer and tissue were transferred to an eppendorf tube. The samples were left on ice for 10 minutes with periodic vortexing every 2 to 3 minutes. The samples were then transferred to a Qiashredder (Qiagen) and centrifuged at 14 000 rpm for 2 minutes. The flow through was transferred to a new eppendorf tube and the samples were centrifuged again at 14 000 rpm for 5 minutes. Supernatants were collected as whole cell lysates.
For the majority of experiments in this study, 30 μg of protein per well was loaded. Samples were then resolved on SDS-PAGE (polyacrylamide gel electrophoresis) using various percentages of acrylamide gels (8%-12%), depending on the proteins of interest. […] For certain immunoblots, bands of proteins of interest were scanned and band intensity ratios were determined by densitometric analysis (ImageJ). […] To assess whether cells are actively undergoing cell death, the activity of poly ADP ribose polymerase (PARP) (1:1000 CST) was also measured using the immunoblotting method.

HLA-DRA mRNA = test: Immuno-oncology: HLA-DRA mRNA expression; type: cell-based, Human; details: MDA-MB-231 and JIMT-1 cells; Compound 16 2 or 4 uM, Compound 18 1, 2, or 4 uM
Text: as §4

[5] = system: CD274, the gene that encodes PD-L1; test: Immuno-oncology: CD274 expression in MDA-MB-231 cells; type: cell-based, Human; details: Compound 16 2 or 4 uM, Compound 18 1, 2 or 4 uM
Text: as §4

[6] = system: All cell lines of Tables 7A and 7B; test: Monolayer growth inhibition, crystal violet, range over all cell lines; type: cell-based; details: 120 h, read-out: IC50 Values - Crystal Violet (5 Days), Range
[7] = system: All cell lines of Tables 6A and 6B; test: Monolayer growth inhibition, Alamar blue, range over all cell lines; type: cell-based; details: 120 h, read-out: IC50 Values - Alamar Blue (5 Days), Range
Description: 1×10^3 cells per well were seeded for a final volume of 200 μl per well and plates were incubated for 5 days at 37° C. in a humidified incubator with 5% CO2. Following the incubation period, cell survival was quantified by Alamar blue assay (Life Technologies). Briefly, media from each well was replaced with 100 μl of phosphate buffer saline (PBS, Life Technologies) and cells were incubated with 5% Alamar blue, which incorporates a propriety redox indicator that changes colour in response to metabolic activity, for up to 2 hours. During this period of incubation, the absorbance at 570 nm and 600 nm was measured at various time points, depending on the cell line or sample. Percent survival was calculated by comparing the absorbance ratio of the test well to the control well multiplied by 100%, as indicated in the following formula:

RSK1, sequence (Q15418 whole entry): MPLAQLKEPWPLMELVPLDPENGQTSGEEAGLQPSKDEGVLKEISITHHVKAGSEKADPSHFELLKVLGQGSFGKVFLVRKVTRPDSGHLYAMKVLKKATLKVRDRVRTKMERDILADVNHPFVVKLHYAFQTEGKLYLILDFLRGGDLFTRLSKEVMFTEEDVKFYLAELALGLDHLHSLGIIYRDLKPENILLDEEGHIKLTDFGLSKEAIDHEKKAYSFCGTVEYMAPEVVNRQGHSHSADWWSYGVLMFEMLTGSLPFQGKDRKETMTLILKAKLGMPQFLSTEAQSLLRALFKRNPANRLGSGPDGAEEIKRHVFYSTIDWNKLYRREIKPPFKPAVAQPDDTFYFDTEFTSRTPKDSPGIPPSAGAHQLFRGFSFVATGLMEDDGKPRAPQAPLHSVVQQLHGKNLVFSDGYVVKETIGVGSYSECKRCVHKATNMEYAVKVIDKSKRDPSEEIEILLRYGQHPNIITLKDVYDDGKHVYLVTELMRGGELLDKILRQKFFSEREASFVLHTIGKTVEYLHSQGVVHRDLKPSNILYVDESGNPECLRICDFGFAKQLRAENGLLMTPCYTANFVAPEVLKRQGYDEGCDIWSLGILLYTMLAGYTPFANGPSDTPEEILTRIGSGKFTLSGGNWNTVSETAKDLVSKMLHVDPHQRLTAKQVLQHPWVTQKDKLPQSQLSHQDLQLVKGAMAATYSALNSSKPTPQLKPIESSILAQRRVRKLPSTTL
RSK4, sequence (Q9UK32 whole entry): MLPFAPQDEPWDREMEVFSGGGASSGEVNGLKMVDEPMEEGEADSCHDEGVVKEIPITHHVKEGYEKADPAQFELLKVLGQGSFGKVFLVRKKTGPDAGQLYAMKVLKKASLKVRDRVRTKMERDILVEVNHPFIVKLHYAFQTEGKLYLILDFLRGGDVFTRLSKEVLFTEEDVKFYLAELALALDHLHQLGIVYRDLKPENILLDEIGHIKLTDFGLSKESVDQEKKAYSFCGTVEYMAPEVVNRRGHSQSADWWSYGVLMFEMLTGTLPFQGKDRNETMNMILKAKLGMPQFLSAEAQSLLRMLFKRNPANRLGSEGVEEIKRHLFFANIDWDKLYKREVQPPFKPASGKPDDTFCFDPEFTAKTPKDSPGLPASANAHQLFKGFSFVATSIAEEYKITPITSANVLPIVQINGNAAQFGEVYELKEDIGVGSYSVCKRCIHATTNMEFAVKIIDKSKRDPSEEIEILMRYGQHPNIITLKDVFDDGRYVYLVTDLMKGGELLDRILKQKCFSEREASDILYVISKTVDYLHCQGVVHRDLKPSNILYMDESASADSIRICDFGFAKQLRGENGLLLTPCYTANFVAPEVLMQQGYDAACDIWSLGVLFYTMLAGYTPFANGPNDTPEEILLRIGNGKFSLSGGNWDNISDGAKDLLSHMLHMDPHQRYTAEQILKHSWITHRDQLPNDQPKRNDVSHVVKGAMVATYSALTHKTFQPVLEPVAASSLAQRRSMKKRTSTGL
RSK3, sequence (Q15349 whole entry): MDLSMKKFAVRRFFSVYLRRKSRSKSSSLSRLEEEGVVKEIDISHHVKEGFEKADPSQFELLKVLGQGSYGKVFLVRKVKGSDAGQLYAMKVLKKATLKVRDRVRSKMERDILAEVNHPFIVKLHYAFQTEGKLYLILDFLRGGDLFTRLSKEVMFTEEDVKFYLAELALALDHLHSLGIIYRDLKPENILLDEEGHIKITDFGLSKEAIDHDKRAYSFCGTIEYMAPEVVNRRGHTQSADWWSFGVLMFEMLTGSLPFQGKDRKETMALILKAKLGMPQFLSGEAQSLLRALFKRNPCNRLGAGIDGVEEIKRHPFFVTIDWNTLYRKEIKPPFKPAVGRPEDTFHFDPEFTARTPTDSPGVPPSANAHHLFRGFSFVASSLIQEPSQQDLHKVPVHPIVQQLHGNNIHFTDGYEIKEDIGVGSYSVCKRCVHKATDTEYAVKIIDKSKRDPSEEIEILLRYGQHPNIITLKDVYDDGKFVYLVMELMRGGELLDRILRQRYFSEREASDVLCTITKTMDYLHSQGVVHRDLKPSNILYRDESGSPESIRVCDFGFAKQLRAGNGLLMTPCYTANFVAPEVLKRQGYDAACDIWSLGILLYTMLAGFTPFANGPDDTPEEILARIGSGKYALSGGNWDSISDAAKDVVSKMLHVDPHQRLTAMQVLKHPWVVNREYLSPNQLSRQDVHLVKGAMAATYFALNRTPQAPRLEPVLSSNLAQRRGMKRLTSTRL
RSK2, sequence (P51812 whole entry): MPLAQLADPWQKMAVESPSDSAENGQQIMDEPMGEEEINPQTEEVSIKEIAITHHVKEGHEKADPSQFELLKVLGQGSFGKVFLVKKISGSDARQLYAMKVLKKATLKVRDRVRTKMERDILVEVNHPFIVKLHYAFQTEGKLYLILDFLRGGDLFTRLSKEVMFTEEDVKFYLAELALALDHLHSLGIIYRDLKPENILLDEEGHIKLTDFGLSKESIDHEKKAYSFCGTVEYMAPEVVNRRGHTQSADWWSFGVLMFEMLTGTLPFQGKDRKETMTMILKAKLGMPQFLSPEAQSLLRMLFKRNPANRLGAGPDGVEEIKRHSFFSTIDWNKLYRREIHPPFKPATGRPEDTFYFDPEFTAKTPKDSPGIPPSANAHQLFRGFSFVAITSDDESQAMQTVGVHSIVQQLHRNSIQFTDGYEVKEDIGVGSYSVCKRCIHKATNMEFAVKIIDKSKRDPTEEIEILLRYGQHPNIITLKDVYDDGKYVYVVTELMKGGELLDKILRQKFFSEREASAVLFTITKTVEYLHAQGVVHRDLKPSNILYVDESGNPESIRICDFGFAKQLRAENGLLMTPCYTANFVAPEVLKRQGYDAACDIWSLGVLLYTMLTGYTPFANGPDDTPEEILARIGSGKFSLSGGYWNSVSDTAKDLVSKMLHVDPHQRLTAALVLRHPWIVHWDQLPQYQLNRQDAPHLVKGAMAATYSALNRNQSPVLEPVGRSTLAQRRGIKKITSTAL

## C[C@@H]1CNC(=O)c2cc3ccc(NC(=O)c4cnn(Cc5ccccc5)c4)nc3n21 [Compound 15, (R)-1-benzyl-N-(9-methyl-6-oxo-6,7,8,9-tetrahydropyrido[3′,2′:4,5]pyrrolo[1,2-a]pyrazin-2-yl)-1H-pyrazole-4-carboxamide]
RSK1
  IC50: 23.6 nM
RSK3
  IC50: 6 nM
RSK2
  IC50: 94 nM
[1]
  viability at 13 days, […]: 100%
RSK4
  IC50: 8 nM

## C[C@@H]1CNC(=O)c2cc3ccc(C(=O)Nc4cnn(Cc5ccc(N)cc5)c4)nc3n21 [Compound 18, (R)—N-(1-(4-aminobenzyl)-1H-pyrazol-4-yl)-9-methyl-6-oxo-6,7,8,9-tetrahydropyrido[3′,2′:4,5]pyrrolo[1,2-a]pyrazine-2-carboxamide]
CIITA mRNA
  mRNA expression of CIITA: little effect
RSK1
  IC50: 2 nM
[2]
  CD274: inhibited
[3]; 20 mg/ml solution, DMSO diluted in DMEM
  pH: 9
[3]
  20 mg/ml Solubility: Soluble
[4]; MDA-MB-231, 0.01, 0.1, 1, or 10 uM, 24 hrs
  loss of P—YB-1: dose dependent loss
[4]; MDA-MB-231, 0.01-1 uM, 96 hrs
  loss of P—YB-1: dose dependent loss
RSK3
  IC50: 1.7 nM
RSK2
  IC50: 12 nM
HLA-DRA mRNA
  levels of HLA-DRA mRNA: elevated
[5]
  levels of CD274: reduced
RSK4
  IC50: 0.3 nM

## C[C@@H]1CNC(=O)c2cc3ccc(C(=O)Nc4cnn(Cc5ccc(F)cc5F)c4)nc3n21 [Compound 23, (R)—N-(1-(2,4-difluorobenzyl)-1H-pyrazol-4-yl)-9-methyl-6-oxo-6,7,8,9-tetrahydropyrido[3′,2′:4,5]pyrrolo[1,2-a]pyrazine-2-carboxamide]
[6]
  IC50: 1100 to 15000 nM
[3]
  20 mg/ml Solubility: Precipitate
[7]
  IC50: 1100 to 19800 nM
